# The SangsterLogP compilation
# Test: method code SF-HPLC, from DOI: 10.1081/jlc-100101463
# Details: pH 12.0
row,Compound,logD
1,CC(C)(C)c1ccc(OCC2CN=C(N)O2)cc1 (stereo not drawn),2.87
2,CC(C)N(CC1CN=C(N)O1)C(C)C (stereo not drawn),0.98
3,CC1CCCC(C)N1CC1CN=C(N)O1 (stereo not drawn),0.94
4,CC(=O)c1cccc(OCC2CN=C(N)O2)c1 (stereo not drawn),1.31
5,Cc1cc(C)cc(OCC2CN=C(N)O2)c1 (stereo not drawn),2.24
6,NC1=NCC(CN2CCC(Cc3ccccc3)CC2)O1 (stereo not drawn),2.38
7,NC1=NCC(CN2CCC(C(=O)c3ccccc3)CC2)O1 (stereo not drawn),1.05

# Second part, the compound after the results:
row,logD,Compound
1,1.96,NC1=NCC(CN2CCC(c3ccccc3)CC2)O1 (stereo not drawn)
2,0.73,CC1CCCCN1CC1CN=C(N)O1 (stereo not drawn)
3,0.16,CC1CN(CC2CN=C(N)O2)CC(C)O1 (stereo not drawn)
4,0.19,NC1=NCC(CN2CC=CCC2)O1 (stereo not drawn)
5,0.91,CC1CCN(CC2CN=C(N)O2)CC1 (stereo not drawn)
6,-0.22,NC1=NCC(CN2CCOCC2)O1 (stereo not drawn)
